Legend:
[1] = system: IL-4 induced STAT6 phosphorylation in THP-1 human monocytic cells; conditions: THP-1 cells
[2] = system: IL-13 induced STAT6 phosphorylation in BEAS-2B human lung epithelial cells; conditions: BEAS-2B cells
[3] = system: oxazolone-induced colitis; test: Mouse model of oxazolone-induced colitis; type: in vivo, BALB/C mice; conditions: mice, PO, 1, 3, and/or 10 mg/kg BID (doses up to 10 mg/kg BID)
Experimental: Assay 7: Mouse Model of Oxazalone-Induced Colitis
Oxazolone-induced colitis is an experimental model that has a histological resemblance to human ulcerative colitis (Heller et al. Immunology, 2002, 17, 629-638). Adult BALB/C mice from Harlan were used in the assay. On day 1, animals were lightly anesthetized with isoflurane and the hairs between the shoulder were carefully removed before oxazolone (4%, 150 μL, 4:1 acetone:olive oil formulation) or vehicle solution was slowly applied for skin sensitization. Seven days after skin sensitization, the mice were fasted overnight, anesthetized with isoflurane inhalation, and a 1 mL syringe equipped with a 3.5-F catheter, filled with oxazolone solution, was inserted carefully about 4 cm into the colon of the mouse. Following insertion, 50 μL of the oxazolone solution (1%, 1:1 ethanol:water formulation) was injected very slowly (over 30 sec using an injection pump) into the colon. The catheter was removed and the mice were held vertically (head down) for 2 min to ensure that the entire oxazolone solution remained inside the colon. Drug treatment (PO, BID or TID) or vehicle was initiated a day prior to the oxazolone intrarectal (IR) challenge. Two-day post oxazolone intrarectal challenge, the Disease Activity Index (DAI) was assessed by treatment-blinded experimenters for each mouse according to the criteria score: stool consistency score (0, normal; 2, loose; 4, diarrhea), gross bleeding score (0, absence; 2, blood tinged; 4, presence), and weight loss score (0, none; 1, 1%-5%; 2, 5%-10%; 3, 10%-20%; 4, more than 20%); DAI=average of (stool consistency score+gross bleeding score+weight loss score).
Selected compounds of the invention were tested in the assay. Efficacy in the model is evidenced by a decrease in DAI score as compared with the score from vehicle treated animals.

Row | SMILES | THP-1 IL4 pIC50 [1] | BEAS2B pIC50 [2] | decrease in DAI score as compared with vehicle treated animals [3]
1 | Cc1cc(Nc2cc3ncccc3c(N[C@@H]3C[C@H]4CC[C@@H](C3)N4CC(C)C#N)n2)n[nH]1 (stereo partly shown) [Example 1-23] | A (A represents a pEC50 value ≥7.5 (EC50≤32 nM)) | A (A represents a pEC50 value ≥7.5 (EC50≤32 nM)) | 
2 | Cc1cc(Nc2cc3ncccc3c(N[C@@H]3C[C@H]4CCC[C@@H](C3)N4CCC#N)n2)n[nH]1 [Example 1-31] | A (A represents a pEC50 value ≥7.5 (EC50≤32 nM)) | A (A represents a pEC50 value ≥7.5 (EC50≤32 nM)) | 
3 | Cc1cc(Nc2cc3ncccc3c(N[C@@H]3C[C@H]4CCC[C@@H](C3)N4CC(=O)N(C)C)n2)n[nH]1 [Example 1-38] |  |  | statistically significant decrease
4 | Cc1cc(Nc2cc3ncccc3c(N[C@@H]3C[C@H]4CCC[C@@H](C3)N4CCF)n2)n[nH]1 [Example 1-39] | A (A represents a pEC50 value ≥7.5 (EC50≤32 nM)) | A (A represents a pEC50 value ≥7.5 (EC50≤32 nM)) | 
5 | Cc1cc(Nc2cc3ncccc3c(N[C@@H]3C[C@H]4CCC[C@@H](C3)N4CCCF)n2)n[nH]1 [Example 1-40] | A (A represents a pEC50 value ≥7.5 (EC50≤32 nM)) | A (A represents a pEC50 value ≥7.5 (EC50≤32 nM)) | 
6 | Cc1cc(Nc2cc3ncccc3c(N[C@@H]3C[C@H]4CCC[C@@H](C3)N4CC(C)C)n2)n[nH]1 [Example 1-43] | A (A represents a pEC50 value ≥7.5 (EC50≤32 nM)) | A (A represents a pEC50 value ≥7.5 (EC50≤32 nM)) | 
7 | Cc1cc(Nc2cc3ncccc3c(N[C@@H]3C[C@H]4CCC[C@@H](C3)N4CCC(F)(F)F)n2)n[nH]1 [Example 1-44] | A (A represents a pEC50 value ≥7.5 (EC50≤32 nM)) | A (A represents a pEC50 value ≥7.5 (EC50≤32 nM)) | 
8 | Cc1cc(Nc2cc3ncccc3c(N[C@@H]3C[C@H]4CCC[C@@H](C3)N4Cc3cccnc3)n2)n[nH]1 [Example 1-47] | A (A represents a pEC50 value ≥7.5 (EC50≤32 nM)) | A (A represents a pEC50 value ≥7.5 (EC50≤32 nM)) | 
9 | Cc1cc(Nc2cc3ncccc3c(N[C@@H]3C[C@H]4CCC[C@@H](C3)N4Cc3ccncc3C#N)n2)n[nH]1 [Example 1-56] | A (A represents a pEC50 value ≥7.5 (EC50≤32 nM)) | A (A represents a pEC50 value ≥7.5 (EC50≤32 nM)) | 
10 | Cc1cc(Nc2cc3ncccc3c(N[C@@H]3C[C@H]4CCC[C@@H](C3)N4C(=O)c3ccccc3)n2)n[nH]1 [Example 2-25] | A (A represents a pEC50 value ≥7.5 (EC50≤32 nM)) | A (A represents a pEC50 value ≥7.5 (EC50≤32 nM)) | 
11 | CCC1(S(=O)(=O)N2[C@@H]3CCC[C@H]2C[C@H](Nc2nc(Nc4cc(C)[nH]n4)cc4ncccc24)C3)CC1 [Example 4-20] | A (A represents a pEC50 value ≥7.5 (EC50≤32 nM)) | A (A represents a pEC50 value ≥7.5 (EC50≤32 nM)) | 
12 | Cc1cc(Nc2cc3ncccc3c(N[C@@H]3C[C@H]4CCC[C@@H](C3)N4S(=O)(=O)N3CCCC3)n2)n[nH]1 [Example 4-27] | A (A represents a pEC50 value ≥7.5 (EC50≤32 nM)) | A (A represents a pEC50 value ≥7.5 (EC50≤32 nM)) | 
13 | Cc1cc(Nc2cc3ncccc3c(N[C@@H]3C[C@H]4CCC[C@@H](C3)N4S(=O)(=O)N3CCC3)n2)n[nH]1 [Example 4-29] | A (A represents a pEC50 value ≥7.5 (EC50≤32 nM)) | A (A represents a pEC50 value ≥7.5 (EC50≤32 nM)) | 
14 | COc1ccc2c(N[C@@H]3C[C@H]4CC[C@@H](C3)N4CC(C)C)nc(Nc3cc(C)[nH]n3)cc2n1 [Example 5-4] | A (A represents a pEC50 value ≥7.5 (EC50≤32 nM)) | A (A represents a pEC50 value ≥7.5 (EC50≤32 nM)) | 
15 | COc1ccc2c(N[C@@H]3C[C@H]4CC[C@@H](C3)N4CCC#N)nc(Nc3cc(C)[nH]n3)cc2n1 [Example 5-8] | A (A represents a pEC50 value ≥7.5 (EC50≤32 nM)) | A (A represents a pEC50 value ≥7.5 (EC50≤32 nM)) | 
16 | COc1ccc2c(N[C@@H]3C[C@H]4CCC[C@@H](C3)N4CCC#N)nc(Nc3cc(C)[nH]n3)cc2n1 [Example 5-10] | A (A represents a pEC50 value ≥7.5 (EC50≤32 nM)) | A (A represents a pEC50 value ≥7.5 (EC50≤32 nM)) | 
17 | Cc1cc(Nc2cc3nc(CN4CCOCC4)ccc3c(N[C@@H]3C[C@H]4CCC[C@@H](C3)N4S(=O)(=O)c3cccnc3)n2)n[nH]1 [Example 5-27] | A (A represents a pEC50 value ≥7.5 (EC50≤32 nM)) | A (A represents a pEC50 value ≥7.5 (EC50≤32 nM)) | 

Row | SMILES | THP-1 IL4 pIC50 [1] | BEAS2B pIC50 [2] | decrease in DAI score as compared with vehicle treated animals [3]
18 | Cc1cc(Nc2cc3nc(CN4CCOCC4)ccc3c(N[C@@H]3C[C@H]4CCC[C@@H](C3)N4S(=O)(=O)c3cncc(F)c3)n2)n[nH]1 [Example 5-30] | A (A represents a pEC50 value ≥7.5 (EC50≤32 nM)) | A (A represents a pEC50 value ≥7.5 (EC50≤32 nM)) | 
19 | Cc1cnc2cc(Nc3cc(C)[nH]n3)nc(N[C@@H]3C[C@H]4CC[C@@H](C3)N4CCC#N)c2c1 [Example 6-1] | A (A represents a pEC50 value ≥7.5 (EC50≤32 nM)) | A (A represents a pEC50 value ≥7.5 (EC50≤32 nM)) | 
20 | Cc1cnc2cc(Nc3cc(C)[nH]n3)nc(N[C@@H]3C[C@H]4CCC[C@@H](C3)N4CCC#N)c2c1 [Example 6-6] | A (A represents a pEC50 value ≥7.5 (EC50≤32 nM)) | A (A represents a pEC50 value ≥7.5 (EC50≤32 nM)) | 
21 | Cc1cnc2cc(Nc3cc(C)[nH]n3)nc(N[C@@H]3C[C@H]4CCC[C@@H](C3)N4S(=O)(=O)N3CC(C#N)C3)c2c1 [Example 6-9] | A (A represents a pEC50 value ≥7.5 (EC50≤32 nM)) | A (A represents a pEC50 value ≥7.5 (EC50≤32 nM)) | 
22 | COc1cnc2cc(Nc3cc(C)[nH]n3)nc(N[C@@H]3C[C@H]4CC[C@@H](C3)N4CC(C)C)c2c1 [Example 6-14] | A (A represents a pEC50 value ≥7.5 (EC50≤32 nM)) | A (A represents a pEC50 value ≥7.5 (EC50≤32 nM)) | 
23 | COc1cnc2cc(Nc3cc(C)[nH]n3)nc(N[C@@H]3C[C@H]4CC[C@@H](C3)N4CCC(F)(F)F)c2c1 [Example 6-15] | A (A represents a pEC50 value ≥7.5 (EC50≤32 nM)) | A (A represents a pEC50 value ≥7.5 (EC50≤32 nM)) | 
24 | COc1cnc2cc(Nc3cc(C)[nH]n3)nc(N[C@@H]3C[C@H]4CCC[C@@H](C3)N4Cc3ccncc3)c2c1 [Example 6-28] | A (A represents a pEC50 value ≥7.5 (EC50≤32 nM)) | A (A represents a pEC50 value ≥7.5 (EC50≤32 nM)) | 
25 | COc1cnc2cc(Nc3cc(C)[nH]n3)nc(N[C@@H]3C[C@H]4CCC[C@@H](C3)N4S(C)(=O)=O)c2c1 [Example 6-29] | A (A represents a pEC50 value ≥7.5 (EC50≤32 nM)) | A (A represents a pEC50 value ≥7.5 (EC50≤32 nM)) | 
26 | COc1cnc2cc(Nc3cc(C)[nH]n3)nc(N[C@@H]3C[C@H]4CCC[C@@H](C3)N4CCC#N)c2c1 [Example 6-31] | A (A represents a pEC50 value ≥7.5 (EC50≤32 nM)) | A (A represents a pEC50 value ≥7.5 (EC50≤32 nM)) | 
27 | COC(=O)c1cnc2cc(Nc3cc(C)[nH]n3)nc(N[C@@H]3C[C@H]4CCC[C@@H](C3)N4CCC#N)c2c1 [Example 6-47] | A (A represents a pEC50 value ≥7.5 (EC50≤32 nM)) | A (A represents a pEC50 value ≥7.5 (EC50≤32 nM)) | 
28 | Cc1cc(Nc2nc(N[C@@H]3C[C@H]4CC[C@@H](C3)N4S(C)(=O)=O)c3cccnc3c2F)n[nH]1 [Example 8-2] | A (A represents a pEC50 value ≥7.5 (EC50≤32 nM)) | C (C represents a pEC50 value <6.7 (EC50>200 nM)) | 
29 | Cc1cc(Nc2nc(N[C@@H]3C[C@H]4CC[C@@H](C3)N4S(=O)(=O)c3cncc(F)c3)c3cccnc3c2F)n[nH]1 [Example 8-5] |  | A (A represents a pEC50 value ≥7.5 (EC50≤32 nM)) | 
30 | Cc1cc(Nc2nc(N[C@@H]3C[C@H]4CCC[C@@H](C3)N4S(C)(=O)=O)c3cccnc3c2F)n[nH]1 [Example 8-10] | A (A represents a pEC50 value ≥7.5 (EC50≤32 nM)) | A (A represents a pEC50 value ≥7.5 (EC50≤32 nM)) | 
31 | Cc1cc(Nc2nc(N[C@@H]3C[C@H]4CCC[C@@H](C3)N4S(=O)(=O)c3ccccc3)c3cccnc3c2F)n[nH]1 [Example 8-11] |  | A (A represents a pEC50 value ≥7.5 (EC50≤32 nM)) | 
32 | Cc1cc(Nc2nc(N[C@@H]3C[C@H]4CCC[C@@H](C3)N4S(=O)(=O)c3cccnc3)c3cccnc3c2F)n[nH]1 [Example 8-12] | A (A represents a pEC50 value ≥7.5 (EC50≤32 nM)) | A (A represents a pEC50 value ≥7.5 (EC50≤32 nM)) | 
33 | Cc1cc(Nc2nc(N[C@@H]3C[C@H]4CCC[C@@H](C3)N4S(=O)(=O)c3cncc(F)c3)c3cccnc3c2F)n[nH]1 [Example 8-13] |  | A (A represents a pEC50 value ≥7.5 (EC50≤32 nM)) | 
34 | Cc1cc(Nc2nc(N[C@@H]3C[C@H]4CCC[C@@H](C3)N4Cc3ccncc3)c3cccnc3c2F)n[nH]1 [Example 8-14] | A (A represents a pEC50 value ≥7.5 (EC50≤32 nM)) | A (A represents a pEC50 value ≥7.5 (EC50≤32 nM)) | 
